Measurements: the NIST ThermoML archive (doi:10.1016/j.jct.2016.03.029)

Assay: xn = mol fraction of the nth substance listed
Settings: 100 kPa, Liquid; for speed of sound: Frequency=3 MHz, Sing-around technique in a fixed-path interferometer; for mass density: Vibrating tube method

CCCC[n+]1ccn(C)c1.O=S(=O)([N-]S(=O)(=O)C(F)(F)F)C(F)(F)F + CN1CCCC1=O
Settings	mass density, 298.15 K [kg/m3]	mass density, 303.15 K [kg/m3]	mass density, 308.15 K [kg/m3]	mass density, 313.15 K [kg/m3]	speed of sound, 298.15 K [m/s]	speed of sound, 303.15 K [m/s]	speed of sound, 308.15 K [m/s]	speed of sound, 313.15 K [m/s]	speed of sound, 318.15 K [m/s]
x1 = 0.1051	1135.14	1130.6	1126.04	1121.51	1448.1	1430.8	1413.4	1396.4	1379.1
x1 = 0.2088	1209.84	1205.24	1200.63	1196.02	1385.2	1369.4	1353.5	1337.9	1322.3
x1 = 0.2926	1255.56	1250.89	1246.22	1241.59	1347.3	1332.5	1317.8	1303.1	1288.7
x1 = 0.3807	1293.95	1289.25	1284.55	1279.89	1317	1303.1	1289.2	1275.6	1262.1
x1 = 0.5019	1335.52	1330.79	1326.08	1321.38	1287.5	1274.3	1261.2	1248.3	1235.4
x1 = 0.5925	1360.41	1355.69	1350.96	1346.26	1271	1258.2	1245.5	1232.9	1220.3
x1 = 0.6982	1384.58	1379.86	1375.14	1370.44	1255.8	1243.5	1231.1	1218.9	1206.6
x1 = 0.7862	1401.58	1396.85	1392.14	1387.44	1245.6	1233.5	1221.5	1209.5	1197.5
x1 = 0.8895	1418.59	1413.85	1409.13	1404.42	1236.2	1224.4	1212.7	1201.2	1189.5
x1 = 1	1433.72	1428.92	1424.13	1419.36	1227.9	1216.8	1205.8	1195	1184.2
